We go through 30 molecules from patent US11382918B2, “Methods for treating Huntington's Disease” (PTC Therapeutics, Inc., priority 2017, dated 2022).

Where a name gives a salt, the structure may show the parent alone.

The subject of the test is Endogenous Huntingtin Protein (HTT). Briefly: Endogenous Huntingtin Protein Assay (ELISA-based MSD electrochemiluminescence). Format: cell-based. Particulars: Table 1. How it is done:
Compounds of Formula (I) were tested using the Meso Scale Discovery (MSD) Assay provided in International Application No. PCT/US2016/066042, filed on Dec. 11, 2016 and claiming priority to U.S. Provisional Application 62/265,652 filed on Dec. 10, 2015, published as International Publication No. WO 2017/100726 on Jun. 15, 2017, the entire contents of which are incorporated herein by reference.
The Endogenous Huntingtin Protein assay used in Example 1 was developed using the ELISA-based MSD electrochemiluminescence assay platform.
Endogenous Huntingtin Protein Assay
Meso Scale Discovery (MSD) 96-well or 384-well plates were coated overnight at 4° C. with MW1 (expanded polyglutamine) or MAB2166 monoclonal antibody (for capture) at a concentration of 1 μg/mL in PBS (30 μL per well). Plates were then washed three times with 300 µL wash buffer (0.05% Tween-20 in PBS) and blocked (100 μL blocking buffer; 5% BSA in PBS) for 4-5 hours at room temperature with rotational shaking and then washed three times with wash buffer.
Samples (25 μL) were transferred to the antibody-coated MSD plate and incubated overnight at 4° C. After removal of the lysates, the plate was washed three times with wash buffer, and 25 μL of #5656S (Cell signaling; rabbit monoclonal) secondary antibody (diluted to 0.25 μg/mL in 0.05% Tween-20 in blocking buffer) was added to each well and incubated with shaking for 1 Hour at room temperature. Following incubation with the secondary antibody, the wells were rinsed with wash buffer after which 25 μL of goat anti-rabbit SULFO TAG secondary detection antibody (required aspect of the MSD system) (diluted to 0.25 μg/mL in 0.05% Tween-20 in blocking buffer) was added to each well and incubated with shaking for 1 hour at room temperature. After rinsing three times with wash buffer, 150 μL of read buffer T with surfactant (MSD) were added to each empty well, and the plate was imaged on a SI 6000 imager (MSD) according to manufacturers' instructions provided for 96- or 384-well plates.
`Cc1cn2cc(-c3cc(=O)n4cc(C5=CCNCC5)ncc4n3)cc2c(C)n1` [compound 413, 2-(1,3-dimethylpyrrolo[1,2-a]pyrazin-7-yl)-7-(1,2,3,6-tetrahydropyridin-4-yl)-4H-pyrazino[1,2-a]pyrimidin-4-one hydrochloride (1:2)] displayed an IC50 below 100 nM.

In the case of `Cc1cn2nc(-c3cc(=O)n4cc(N5CCNCC5)ccc4n3)cc2cn1` [compound 420, 2-(6-methylpyrazolo[1,5-a]pyrazin-2-yl)-7-(piperazin-1-yl)-4H-pyrido[1,2-a]pyrimidin-4-one], the IC50 was 1000 to 3000 nM.

In the case of `Cc1nc2ccc(-c3cc(=O)n4cc(C5=CCNCC5)ncc4n3)cc2o1` [compound 421, 2-(2-methyl-1,3-benzoxazol-6-yl)-7-(1,2,3,6-tetrahydropyridin-4-yl)-4H-pyrazino[1,2-a]pyrimidin-4-one hydrochloride(1:1)], the IC50 lay within 3000 to 33000 nM.

In the case of `Cc1nc2ccc(-c3cc(=O)n4cc(C5=CCN(C)CC5)ncc4n3)cc2o1` [compound 422, 2-(2-methyl-1,3-benzoxazol-6-yl)-7-(1-methyl-1,2,3,6-tetrahydropyridin-4-yl)-4H-pyrazino[1,2-a]pyrimidin-4-one], the IC50 was in the range of 100 to 500 nM.

`CCN1CC=C(c2cn3c(=O)cc(-c4ccc5nc(C)oc5c4)nc3cn2)CC1` [compound 423, 7-(1-ethyl-1,2,3,6-tetrahydropyridin-4-yl)-2-(2-methyl-1,3-benzoxazol-6-yl)-4H-pyrazino[1,2-a]pyrimidin-4-one] registered a concentration for half-maximal inhibition (IC50) of 3000 to 33000 nM.

`Cc1cn2nc(-c3cc(=O)n4cc(N5CCC(N6CCOCC6)CC5)ccc4n3)cc2c(C)n1` [compound 428, 2-(4,6-dimethylpyrazolo[1,5-a]pyrazin-2-yl)-7-[4-(morpholin-4-yl)piperidin-1-yl]-4H-pyrido[1,2-a]pyrimidin-4-one] registered a 50% inhibitory concentration (IC50) of 3000 to 33000 nM.

As for `Cc1cn2cc(-c3cc(=O)n4cc(C5CCNCC5)ccc4n3)ccc2n1` [compound 438, 2-(2-methylimidazo[1,2-a]pyridin-6-yl)-7-(piperidin-4-yl)-4H-pyrido[1,2-a]pyrimidin-4-one], the half-maximal inhibitory concentration (IC50) was in the range of 500 to 1000 nM.

The molecule `Cc1cn2nc(-c3cc(=O)n4cc(N5CCN[C@@H](C)C5)ccc4n3)cc2cn1` [compound 441, 7-[(3S)-3-methylpiperazin-1-yl]-2-(6-methylpyrazolo[1,5-a]pyrazin-2-yl)-4H-pyrido[1,2-a]pyrimidin-4-one] showed an IC50 of 1000 to 3000 nM.

Regarding `Cc1cn2nc(-c3cc(=O)n4cc(N5C[C@@H](C)N[C@@H](C)C5)ccc4n3)cc2cn1` [compound 442, 7-[(3R,5S)-3,5-dimethylpiperazin-1-yl]-2-(6-methylpyrazolo[1,5-a]pyrazin-2-yl)-4H-pyrido[1,2-a]pyrimidin-4-one], the IC50 was in the range of 3000 to 33000 nM.

`CN(C)c1ccc(-c2cc(=O)n3cc(C4=CCNCC4)ccc3n2)cn1` [compound 444, 2-[6-(dimethylamino)pyridin-3-yl]-7-(1,2,3,6-tetrahydropyridin-4-yl)-4H-pyrido[1,2-a]pyrimidin-4-one] displayed an IC50 of 3000 to 33000 nM.

As for `CN1CC=C(c2ccc3nc(-c4ccc(N(C)C)nc4)cc(=O)n3c2)CC1` [compound 450, 2-[6-(dimethylamino)pyridin-3-yl]-7-(1-methyl-1,2,3,6-tetrahydropyridin-4-yl)-4H-pyrido[1,2-a]pyrimidin-4-one], the IC50 fell in the range of 3000 to 33000 nM.

In turn, `CCN(CC)C1CCN(c2ccc3nc(-c4cc5c(C)nc(C)cn5n4)cc(=O)n3c2)CC1` [compound 451, 7-[4-(diethylamino)piperidin-1-yl]-2-(4,6-dimethylpyrazolo[1,5-a]pyrazin-2-yl)-4H-pyrido[1,2-a]pyrimidin-4-one] had a half-inhibitory concentration (IC50) of 3000 to 33000 nM.

In turn, `Cc1cn2nc(-c3cc(=O)n4cc(C5CCNCC5)ccc4n3)cc2c(C)n1` [compound 452, 2-(4,6-dimethylpyrazolo[1,5-a]pyrazin-2-yl)-7-(piperidin-4-yl)-4H-pyrido[1,2-a]pyrimidin-4-one] came in with a half-maximal inhibitory concentration (IC50) of 100 to 500 nM.

In turn, `Cc1cn2cc(-c3ccc4nc(C5CCN(C)CC5)cc(=O)n4c3)ccc2n1` [compound 460, 7-(2-methylimidazo[1,2-a]pyridin-6-yl)-2-(1-methylpiperidin-4-yl)-4H-pyrido[1,2-a]pyrimidin-4-one] returned an IC50 of 3000 to 33000 nM.

With `Cc1cn2cc(-c3ccc4nc(C5CCN(C(C)C)CC5)cc(=O)n4c3)ccc2n1` [compound 461, 7-(2-methylimidazo[1,2-a]pyridin-6-yl)-2-[1-(propan-2-yl)piperidin-4-yl]-4H-pyrido[1,2-a]pyrimidin-4-one], the concentration for half-maximal inhibition (IC50) was 3000 to 33000 nM.

`Cc1cn2cc(-c3ccc4nc(C5CCN(C)CC5)cc(=O)n4c3)cc(F)c2n1` [compound 462, 7-(8-fluoro-2-methylimidazo[1,2-a]pyridin-6-yl)-2-(1-methylpiperidin-4-yl)-4H-pyrido[1,2-a]pyrimidin-4-one] showed an IC50 of 1000 to 3000 nM.

`CCN1CC=C(c2ccc3nc(-c4ccc5c(cnn5C)c4)cc(=O)n3c2)CC1` [compound 463, 7-(1-ethyl-1,2,3,6-tetrahydropyridin-4-yl)-2-(1-methyl-1H-indazol-5-yl)-4H-pyrido[1,2-a]pyrimidin-4-one] gave an IC50 of 3000 to 33000 nM.

In the case of `CN(C)c1ccc(-c2cc(=O)n3cc(C4CCNCC4)ccc3n2)cn1` [compound 465, 2-[6-(dimethylamino)pyridin-3-yl]-7-(piperidin-4-yl)-4H-pyrido[1,2-a]pyrimidin-4-one], the half-inhibitory concentration (IC50) fell in the range of 3000 to 33000 nM.

In the case of `Cn1cc2cc(-c3cc(=O)n4cc(C5=CCNCC5)ccc4n3)ccc2n1` [compound 474, 2-(2-methyl-2H-indazol-5-yl)-7-(1,2,3,6-tetrahydropyridin-4-yl)-4H-pyrido[1,2-a]pyrimidin-4-one], the IC50 was 500 to 1000 nM.

Turning to `CN1CC=C(c2ccc3nc(-c4ccc5nn(C)cc5c4)cc(=O)n3c2)CC1` [compound 476, 2-(2-methyl-2H-indazol-5-yl)-7-(1-methyl-1,2,3,6-tetrahydropyridin-4-yl)-4H-pyrido[1,2-a]pyrimidin-4-one], the IC50 was in the range of 3000 to 33000 nM.

On to `CCN1CC=C(c2ccc3nc(-c4ccc5nn(C)cc5c4)cc(=O)n3c2)CC1` [compound 477, 7-(1-ethyl-1,2,3,6-tetrahydropyridin-4-yl)-2-(2-methyl-2H-indazol-5-yl)-4H-pyrido[1,2-a]pyrimidin-4-one], for which the IC50 lay within 1000 to 3000 nM.

`Cc1cn2cc(-c3cc(=O)n4cc(C5=CCN(C(C)C)CC5)ncc4n3)cc2c(C)n1` [compound 479, 2-(1,3-dimethylpyrrolo[1,2-a]pyrazin-7-yl)-7-[1-(propan-2-yl)-1,2,3,6-tetrahydropyridin-4-yl]-4H-pyrazino[1,2-a]pyrimidin-4-one] showed an IC50 of 3000 to 33000 nM.

The molecule `Cc1cn2nc(-c3cc(=O)n4cc(C5=CCNCC5)cc(C)c4n3)cc2c(C)n1` [compound 480, 2-(4,6-dimethylpyrazolo[1,5-a]pyrazin-2-yl)-9-methyl-7-(1,2,3,6-tetrahydropyridin-4-yl)-4H-pyrido[1,2-a]pyrimidin-4-one] yielded a 50% inhibitory concentration (IC50) of 100 to 500 nM.

Regarding `Cc1cn2nc(-c3cc(=O)n4cc(C5=CCN(C)CC5)cc(C)c4n3)cc2c(C)n1` [compound 481, 2-(4,6-dimethylpyrazolo[1,5-a]pyrazin-2-yl)-9-methyl-7-(1-methyl-1,2,3,6-tetrahydropyridin-4-yl)-4H-pyrido[1,2-a]pyrimidin-4-one], the IC50 is 3000 to 33000 nM.

`CCN1CC=C(c2cc(C)c3nc(-c4cc5c(C)nc(C)cn5n4)cc(=O)n3c2)CC1` [compound 482, 2-(4,6-dimethylpyrazolo[1,5-a]pyrazin-2-yl)-7-(1-ethyl-1,2,3,6-tetrahydropyridin-4-yl)-9-methyl-4H-pyrido[1,2-a]pyrimidin-4-one] gave an IC50 of 3000 to 33000 nM.

In turn, `Cc1cc2cc(-c3cc(=O)n4cc(N5CCNCC5)ccc4n3)oc2c(C)n1` [compound 486, 2-(5,7-dimethylfuro[2,3-c]pyridin-2-yl)-7-(piperazin-1-yl)-4H-pyrido[1,2-a]pyrimidin-4-one] registered a concentration for half-maximal inhibition (IC50) of 500 to 1000 nM.

Regarding `Cc1cc2cc(-c3cc(=O)n4cc(N5CCN(C)CC5)ccc4n3)oc2c(C)n1` [compound 487, 2-(5,7-dimethylfuro[2,3-c]pyridin-2-yl)-7-(4-methylpiperazin-1-yl)-4H-pyrido[1,2-a]pyrimidin-4-one], the concentration for half-maximal inhibition (IC50) was 500 to 1000 nM.

Turning to `CN1CCN(c2ccc3nc(-c4ccc5c(cnn5C)c4)cc(=O)n3c2)CC1` [compound 489, 2-(1-methyl-1H-indazol-5-yl)-7-(4-methylpiperazin-1-yl)-4H-pyrido[1,2-a]pyrimidin-4-one], the IC50 was in the range of 3000 to 33000 nM.

`Cn1ncc2cc(-c3cc(=O)n4cc(N5CCNCC5)ccc4n3)ccc21` [compound 490, 2-(1-methyl-1H-indazol-5-yl)-7-(piperazin-1-yl)-4H-pyrido[1,2-a]pyrimidin-4-one] returned a half-inhibitory concentration (IC50) of 3000 to 33000 nM.

In the case of `Cc1cn2nc(-c3cc(=O)n4cc(C5CCNCC5)ncc4n3)cc2c(C)n1` [compound 502, 2-(4,6-dimethylpyrazolo[1,5-a]pyrazin-2-yl)-7-(piperidin-4-yl)-4H-pyrazino[1,2-a]pyrimidin-4-one], the IC50 is below 100 nM.
